In patent publication US8853203B2, “Diazepinone derivatives” (Novartis AG, priority 2012, dated 2014):

What was measured:
human mGluR5a receptors = human mGluR5a receptors (Homo sapiens (Human), UniProt P41594); assay: inhibition of glutamate-induced elevation of intracellular calcium in L(tk-) cells expressing human mGluR5a; assay type: cell-based; conditions: for IC50: glutamate-induced intracellular calcium elevation, L(tk-) cells expressing human mGluR5a, read-out: mGluR5 IC50; for inhibition at 10 µM: LTK, read-out: mGluR5 % inhibition at 10 μM
Sequence of human mGluR5a receptors (P41594 other isoform, or with tags, fused parts or gaps): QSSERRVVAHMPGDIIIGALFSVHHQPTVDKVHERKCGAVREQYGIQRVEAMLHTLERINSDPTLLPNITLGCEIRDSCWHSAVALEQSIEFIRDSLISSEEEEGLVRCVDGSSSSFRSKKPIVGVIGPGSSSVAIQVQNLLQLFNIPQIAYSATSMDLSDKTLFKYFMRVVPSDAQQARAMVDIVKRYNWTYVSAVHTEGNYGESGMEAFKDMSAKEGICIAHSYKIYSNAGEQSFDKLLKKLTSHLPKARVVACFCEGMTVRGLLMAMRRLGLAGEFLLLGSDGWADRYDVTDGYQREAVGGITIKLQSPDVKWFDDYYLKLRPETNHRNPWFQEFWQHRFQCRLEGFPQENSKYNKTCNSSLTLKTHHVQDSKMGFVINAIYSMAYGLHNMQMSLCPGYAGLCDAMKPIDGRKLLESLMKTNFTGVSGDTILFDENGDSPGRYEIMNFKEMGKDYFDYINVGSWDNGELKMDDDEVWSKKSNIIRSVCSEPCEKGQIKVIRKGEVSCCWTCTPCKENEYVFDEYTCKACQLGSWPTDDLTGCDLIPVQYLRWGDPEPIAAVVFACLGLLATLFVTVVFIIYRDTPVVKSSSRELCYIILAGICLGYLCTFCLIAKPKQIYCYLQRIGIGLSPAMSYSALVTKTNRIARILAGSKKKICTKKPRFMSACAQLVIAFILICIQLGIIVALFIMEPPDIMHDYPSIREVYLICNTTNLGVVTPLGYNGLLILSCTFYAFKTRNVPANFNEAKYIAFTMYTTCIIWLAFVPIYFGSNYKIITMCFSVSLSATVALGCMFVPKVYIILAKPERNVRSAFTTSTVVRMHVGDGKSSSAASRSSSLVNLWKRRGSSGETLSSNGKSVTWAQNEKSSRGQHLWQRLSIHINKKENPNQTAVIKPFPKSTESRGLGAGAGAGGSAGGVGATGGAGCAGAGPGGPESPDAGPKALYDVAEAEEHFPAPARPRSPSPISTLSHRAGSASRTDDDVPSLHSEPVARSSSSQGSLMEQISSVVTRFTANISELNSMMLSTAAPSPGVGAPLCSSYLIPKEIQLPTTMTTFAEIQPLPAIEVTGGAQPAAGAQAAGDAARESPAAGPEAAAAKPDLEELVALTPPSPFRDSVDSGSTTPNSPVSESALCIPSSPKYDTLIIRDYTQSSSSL
From the text: Activity of compounds of the present invention was examined by determination to what extent the glutamate-induced elevation of the intracellular calcium concentration in L(tk-) cells expressing human mGluR5a receptors (see L. P. Daggett et al., Neuropharm. Vol. 34, pages 871-886, 1995) is inhibited by utilizing methods as described e.g. by L. P. Daggett et al., Neuropharm. Vol. 34, pages 871-886 (1995) and P. J. Flor et al., J. Neurochem. Vol. 67, pages 58-63 (1996).

human mGluR1 = human mGluR1 (Homo sapiens (Human), UniProt Q13255); assay: mGluR1 antagonism, L-glutamate induced intracellular calcium increase (FLIPR) in CHO cells stably expressing human mGluR1; assay type: cell-based; conditions: for IC50: L-glutamate induced intracellular calcium, CHO cells expressing human mGluR1, FLIPR; for inhibition at 10 µM: CHO
Sequence of human mGluR1 (Q13255 19-1194): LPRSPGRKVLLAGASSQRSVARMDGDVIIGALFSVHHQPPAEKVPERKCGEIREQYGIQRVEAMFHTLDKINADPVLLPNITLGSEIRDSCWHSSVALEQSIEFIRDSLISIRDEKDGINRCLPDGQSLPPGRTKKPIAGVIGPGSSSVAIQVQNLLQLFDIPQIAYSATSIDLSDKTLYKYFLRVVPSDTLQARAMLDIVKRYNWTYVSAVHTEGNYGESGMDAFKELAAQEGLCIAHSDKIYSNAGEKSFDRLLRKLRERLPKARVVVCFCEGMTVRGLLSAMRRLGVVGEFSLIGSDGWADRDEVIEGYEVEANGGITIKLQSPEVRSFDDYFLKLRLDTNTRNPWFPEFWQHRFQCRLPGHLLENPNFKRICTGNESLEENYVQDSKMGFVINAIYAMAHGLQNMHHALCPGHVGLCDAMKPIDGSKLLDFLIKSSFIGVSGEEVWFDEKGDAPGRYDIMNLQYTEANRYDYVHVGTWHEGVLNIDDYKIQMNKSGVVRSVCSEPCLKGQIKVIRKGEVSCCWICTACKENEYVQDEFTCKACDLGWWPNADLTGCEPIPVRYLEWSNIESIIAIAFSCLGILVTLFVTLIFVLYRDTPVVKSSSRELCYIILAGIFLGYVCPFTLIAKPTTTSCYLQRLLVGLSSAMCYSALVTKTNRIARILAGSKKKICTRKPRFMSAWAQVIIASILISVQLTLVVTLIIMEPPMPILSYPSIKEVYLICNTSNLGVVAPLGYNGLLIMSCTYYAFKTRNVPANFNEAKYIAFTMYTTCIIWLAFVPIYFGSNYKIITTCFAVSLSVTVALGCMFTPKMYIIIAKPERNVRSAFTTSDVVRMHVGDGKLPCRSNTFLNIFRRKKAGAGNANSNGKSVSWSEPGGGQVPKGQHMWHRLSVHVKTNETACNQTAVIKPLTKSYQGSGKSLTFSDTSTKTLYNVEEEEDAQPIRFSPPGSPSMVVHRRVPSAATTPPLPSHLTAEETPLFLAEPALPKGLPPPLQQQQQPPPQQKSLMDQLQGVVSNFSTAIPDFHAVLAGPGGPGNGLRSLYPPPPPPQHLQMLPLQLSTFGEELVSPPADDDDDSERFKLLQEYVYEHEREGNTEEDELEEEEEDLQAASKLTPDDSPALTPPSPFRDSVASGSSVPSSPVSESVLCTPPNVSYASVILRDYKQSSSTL
From the text: Activity of compounds of the present invention with respect to mGluR1 antagonism was examined by an assay based on measurements of L-glutamate induced intracellular calcium increases using a 96 well plate-based Fluorometric Imaging Plate Reader (FLIPR), and CHO cells stably expressing human mGluR1. L-glutamate induced robust calcium responses via human mGluR1 in a concentration-dependent manner and in the low micromolar range. The table below represents IC50 values of the inhibition of the glutamate-induced elevation of the intracellular calcium concentration.

| Structure (SMILES) | IC50 (human mGluR5a receptors) [nM] | IC50 (human mGluR1) [nM] | inhibition at 10 µM (human mGluR5a receptors) [%] | inhibition at 10 µM (human mGluR1) [%] |
| --- | --- | --- | --- | --- |
| COc1cccc(C2=NCC(=O)N3CCc4c(cccc4C4CCCO4)C3=C2)c1 (centres unmarked) [Example 57, 2-(3-methoxyphenyl)-9-(tetrahydrofuran-2-yl)-7,8-dihydro-[1,4]diazepino[7,1-a]isoquinolin-5(4H)-one] | 14 | 4500 |  |  |
| COc1cccc2c1CCN1C(=O)CN=C(n3cnc(C(C)C)c3)C=C21 [Example 61, 2-(4-isopropyl-1H-imidazol-1-yl)-9-methoxy-7,8-dihydro-[1,4]diazepino[7,1-a]isoquinolin-5(4H)-one] | 345 | 3100 |  |  |
| Cc1cn(C2=NCC(=O)N3CCc4c(Cl)cccc4C3=C2)cn1 [Example 62, 9-chloro-2-(4-methyl-1H-imidazol-1-yl)-7,8-dihydro-[1,4]diazepino[7,1-a]isoquinolin-5(4H)-one] | 595 | 1600 |  |  |
| O=C1CN=C(n2cnc(C(F)(F)F)c2)C=C2c3cccc(I)c3CCN12 [Example 63, 9-iodo-2-(4-(trifluoromethyl)-1H-imidazol-1-yl)-7,8-dihydro-[1,4]diazepino[7,1-a]isoquinolin-5(4H)-one] | 535 | 3200 |  |  |
| N#Cc1cn(C2=NCC(=O)N3CCc4c(I)cccc4C3=C2)cn1 [Example 64, 1-(9-iodo-5-oxo-4,5,7,8-tetrahydro-[1,4]diazepino[7,1-a]isoquinolin-2-yl)-1H-imidazole-4-carbonitrile] | 4300 | > 10000 |  |  |
| O=C1CN=C(n2cnc(CO)c2)C=C2c3cccc(I)c3CCN12 [Example 65, 2-(4-(hydroxymethyl)-1H-imidazol-1-yl)-9-iodo-7,8-dihydro-[1,4]diazepino[7,1-a]isoquinolin-5(4H)-one] | 210 | 1500 |  |  |
| COC(=O)c1cn(C2=NCC(=O)N3CCc4c(I)cccc4C3=C2)cn1 [Example 66, methyl 1-(9-iodo-5-oxo-4,5,7,8-tetrahydro-[1,4]diazepino[7,1-a]isoquinolin-2-yl)-1H-imidazole-4-carboxylate] | 780 | > 10000 |  |  |
| Cc1cn(C2=NCC(=O)N3CCc4c(I)cccc4C3=C2)c(C)n1 [Example 67, 2-(2,4-dimethyl-1H-imidazol-1-yl)-9-iodo-7,8-dihydro-[1,4]diazepino[7,1-a]isoquinolin-5(4H)-one] | 715 | 1400 |  |  |
| CCOC(=O)c1cn(C2=NCC(=O)N3CCc4c(I)cccc4C3=C2)cn1 [Example 68, ethyl 1-(9-iodo-5-oxo-4,5,7,8-tetrahydro-[1,4]diazepino[7,1-a]isoquinolin-2-yl)-1H-imidazole-4-carboxylate] | 1700 | > 10000 |  |  |
| O=C1CN=C(n2cnc(C3CCC3)c2)C=C2c3cccc(-n4cccn4)c3CCN12 [Example 69, 2-(4-cyclobutyl-1H-imidazol-1-yl)-9-(1H-pyrazol-1-yl)-7,8-dihydro-[1,4]diazepino[7,1-a]isoquinolin-5(4H)-one] | 20 | > 10000 |  |  |
| O=C1CN=C(n2cnc(C3CCC3)c2)C=C2c3cccc(N4CCOCC4)c3CCN12 [Example 70, 2-(4-cyclobutyl-1H-imidazol-1-yl)-9-morpholino-7,8-dihydro-[1,4]diazepino[7,1-a]isoquinolin-5(4H)-one] | 49 | > 10000 |  |  |
| COCc1cn(C2=NCC(=O)N3CCc4c(cccc4-c4nccs4)C3=C2)cn1 [Example 71, 2-(4-(methoxymethyl)-1H-imidazol-1-yl)-9-(thiazol-2-yl)-7,8-dihydro-[1,4]diazepino[7,1-a]isoquinolin-5(4H)-one] | 27 | 6400 |  |  |
| CC(C)c1cn(C2=NCC(=O)N3CCc4c(cccc4-c4cnn(C)c4)C3=C2)cn1 [Example 72, 2-(4-isopropyl-1H-imidazol-1-yl)-9-(1-methyl-1H-pyrazol-4-yl)-7,8-dihydro-[1,4]diazepino[7,1-a]isoquinolin-5(4H)-one] | 275 | > 10000 |  |  |

Next, values leading:

| IC50 (human mGluR5a receptors) [nM] | IC50 (human mGluR1) [nM] | inhibition at 10 µM (human mGluR5a receptors) [%] | inhibition at 10 µM (human mGluR1) [%] | Structure (SMILES) |
| --- | --- | --- | --- | --- |
| 700 | > 10000 |  |  | Cn1ccc(C2=NCC(=O)N3CCc4c(CO)cccc4C3=C2)n1 [Example 45, 9-(hydroxymethyl)-2-(1-methyl-1H-pyrazol-3-yl)-7,8-dihydro-[1,4]diazepino[7,1-a]isoquinolin-5(4H)-one] |
| 270 | 2200 |  |  | Cn1cc(C2=NCC(=O)N3CCc4c(CO)cccc4C3=C2)cn1 [Example 46, 9-(hydroxymethyl)-2-(1-methyl-1H-pyrazol-4-yl)-7,8-dihydro-[1,4]diazepino[7,1-a]isoquinolin-5(4H)-one] |
| 71 | 3400 |  |  | COC(C)c1cccc2c1CCN1C(=O)CN=C(c3ccn(C)n3)C=C21 (centres unmarked) [Example 47, 9-(1-methoxyethyl)-2-(1-methyl-1H-pyrazol-3-yl)-7,8-dihydro-[1,4]diazepino[7,1-a]isoquinolin-5(4H)-one] |
| 35 | 2300 |  |  | COc1cccc(C2=NCC(=O)N3CCc4c(C(C)=O)cccc4C3=C2)c1 [Example 48, 9-acetyl-2-(3-methoxyphenyl)-7,8-dihydro-[1,4]diazepino[7,1-a]isoquinolin-5(4H)-one] |
| 1300 | > 10000 |  |  | COc1cccc(C2=NCC(=O)N3CCc4c(cccc4-c4ccccc4)C3=C2)c1 [Example 49, 2-(3-methoxyphenyl)-9-phenyl-7,8-dihydro-[1,4]diazepino[7,1-a]isoquinolin-5(4H)-one] |
| 46 | > 10000 |  |  | COc1cc(C2=NCC(=O)N3CCc4c(cccc4-c4ccccn4)C3=C2)ccn1 [Example 50, 2-(2-methoxypyridin-4-yl)-9-(pyridin-2-yl)-7,8-dihydro-[1,4]diazepino[7,1-a]isoquinolin-5(4H)-one] |
| 35 | > 10000 |  |  | O=C1CN=C(c2ccoc2)C=C2c3cccc(-c4ccncc4)c3CCN12 [Example 51, 2-(furan-3-yl)-9-(pyridin-4-yl)-7,8-dihydro-[1,4]diazepino[7,1-a]isoquinolin-5(4H)-one] |
| 66 | > 10000 |  |  | COc1cc(C2=NCC(=O)N3CCc4c(cccc4-c4cnccn4)C3=C2)ccn1 [Example 52, 2-(2-methoxypyridin-4-yl)-9-(pyrazin-2-yl)-7,8-dihydro-[1,4]diazepino[7,1-a]isoquinolin-5(4H)-one] |
| 7 | > 10000 |  |  | COc1cc(C2=NCC(=O)N3CCc4c(cccc4-c4ccc(F)nc4)C3=C2)ccn1 [Example 53, 9-(6-fluoropyridin-3-yl)-2-(2-methoxypyridin-4-yl)-7,8-dihydro-[1,4]diazepino[7,1-a]isoquinolin-5(4H)-one] |
| 11 | > 10000 |  |  | COc1cc(C2=NCC(=O)N3CCc4c(cccc4-c4ccncc4F)C3=C2)ccn1 [Example 54, 9-(3-fluoropyridin-4-yl)-2-(2-methoxypyridin-4-yl)-7,8-dihydro-[1,4]diazepino[7,1-a]isoquinolin-5(4H)-one] |
| 4900 | > 10000 |  |  | Cn1cnc(C2=NCC(=O)N3CCc4c(cccc4-c4ccncc4)C3=C2)c1 [Example 55, 2-(1-methyl-1H-imidazol-4-yl)-9-(pyridin-4-yl)-7,8-dihydro-[1,4]diazepino[7,1-a]isoquinolin-5(4H)-one] |
|  |  | 24 | 0 | Cc1cc(-c2cccc3c2CCN2C(=O)CN=C(c4ccn(C)n4)C=C32)ccn1 [Example 56, 2-(1-methyl-1H-pyrazol-3-yl)-9-(2-methylpyridin-4-yl)-7,8-dihydro-[1,4]diazepino[7,1-a]isoquinolin-5(4H)-one] |
|  | 8900 | 26 |  | COc1cccc2c1CCN1C(=O)CN=C(c3cccc(O)n3)C=C21 [Example 58, 9-methoxy-2-(6-oxo-1,6-dihydropyridin-2-yl)-7,8-dihydro-[1,4]diazepino[7,1-a]isoquinolin-5(4H)-one] |
|  | 6500 | 23 |  | COc1cccc(C2=NCC(=O)N3CCc4c(ccc(OC)c4OC)C3=C2)c1 [Example 59, 9,10-dimethoxy-2-(3-methoxyphenyl)-7,8-dihydro-[1,4]diazepino[7,1-a]isoquinolin-5(4H)-one] |
|  |  | 27 | 15 | COc1cccc2c1CCN1C(=O)CN=C(c3cc[nH]c(=O)c3)C=C21 [Example 60, 9-methoxy-2-(2-oxo-1,2-dihydropyridin-4-yl)-7,8-dihydro-[1,4]diazepino[7,1-a]isoquinolin-5(4H)-one] |
| 3500 | > 10000 |  |  | CC(C)c1cn(C2=NCC(=O)N3CCc4c(cccc4-c4nccn4C)C3=C2)cn1 [Example 73, 2-(4-isopropyl-1H-imidazol-1-yl)-9-(1-methyl-1H-imidazol-2-yl)-7,8-dihydro-[1,4]diazepino[7,1-a]isoquinolin-5(4H)-one] |
| 22 | 1200 |  |  | CCc1cn(C2=NCC(=O)N3CCc4c(cccc4-c4ncco4)C3=C2)cn1 [Example 74, 2-(4-ethyl-1H-imidazol-1-yl)-9-(oxazol-2-yl)-7,8-dihydro-[1,4]diazepino[7,1-a]isoquinolin-5(4H)-one] |
| 9 | 170 |  |  | CCc1cn(C2=NCC(=O)N3CCc4c(cccc4-c4ccco4)C3=C2)cn1 [Example 75, 2-(4-ethyl-1H-imidazol-1-yl)-9-(furan-2-yl)-7,8-dihydro-[1,4]diazepino[7,1-a]isoquinolin-5(4H)-one] |
